Tests used:
[1] = target: NAMPT (human, recombinant, C-terminally His-tagged) (Homo sapiens, UniProt P43490); assay: Time-Resolved Fluorescence Resonance Energy Transfer (TR-FRET) Binding Assay of NAMPT; conditions: without substrates; 6.8 nM NAMPT, 200 nM probe, 3 hours equilibration
Method in brief: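 Probe displacement by compound was measured with 6.8 nM NAMPT, 200 nM Oregon Green 488-conjugated nicotinamide-competitive inhibitor probe and 1 nM Tb-anti-His antibody in 50 mM HEPES pH 7.5, 100 mM NaCl, 10 mM MgCl2, 1 mM DTT, 1% glycerol, 2% DMSO (final). After 3 h at room temperature, TR-FRET was read; IC50 from four-parameter logistic fit.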

PC3 cells = assay: NAMPT Cell Proliferation Assay; assay type: cell-based; conditions: Homo sapiens, PC-3, 120 h, 5 days incubation, cell viability by Cell Titer Glo
Method in brief: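 Proliferation of PC3 cells treated 5 days with a 10-fold compound series (top 10 μM) was quantified by Cell Titer Glo luminescence; IC50s were fitted from percent inhibition.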

NAMPT = NAMPT (Homo sapiens, UniProt P43490); assay: TR-FRET Binding Assay of NAMPT with PRPP; conditions: with 200 μM PRPP and 2.5 mM ATP; 2 nM NAMPT, 2 nM probe, 16 hours equilibration
Method in brief: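 Run in the presence of substrates (200 μM PRPP, 2.5 mM ATP) with final 2 nM NAMPT, 2 nM probe, 1 nM Tb-anti-His antibody and 2% DMSO. Mixtures equilibrated 16 h before TR-FRET measurement so test compounds could be enzymatically modified.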

NAMPT, sequence (P43490 whole entry): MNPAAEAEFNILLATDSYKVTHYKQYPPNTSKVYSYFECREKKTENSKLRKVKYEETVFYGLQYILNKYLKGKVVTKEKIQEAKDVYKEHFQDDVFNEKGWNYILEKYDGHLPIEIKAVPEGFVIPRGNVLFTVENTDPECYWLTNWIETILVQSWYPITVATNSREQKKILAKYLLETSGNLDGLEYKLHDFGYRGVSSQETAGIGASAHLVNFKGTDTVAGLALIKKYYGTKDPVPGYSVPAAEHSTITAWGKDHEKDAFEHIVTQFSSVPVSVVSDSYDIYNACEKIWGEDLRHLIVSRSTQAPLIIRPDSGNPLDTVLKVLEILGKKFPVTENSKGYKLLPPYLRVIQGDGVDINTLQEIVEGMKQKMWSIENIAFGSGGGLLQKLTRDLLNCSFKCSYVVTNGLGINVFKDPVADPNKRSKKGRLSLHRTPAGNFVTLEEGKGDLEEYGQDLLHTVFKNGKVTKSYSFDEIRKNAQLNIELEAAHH
NAMPT (human, recombinant, C-terminally His-tagged), sequence (P43490 whole entry): as above

Compound | IC50 [1] | IC50 (PC3 cells) | IC50 (NAMPT)
O=C(NCc1ccn2ccnc2c1)Nc1ccc(OC2CN(C(=O)CC3CCOCC3)C2)cc1 [Example 435, 1-(imidazo[1,2-a]pyridin-7-ylmethyl)-3-(4-{[1-(tetrahydro-2H-pyran-4-ylacetyl)azetidin-3-yl]oxy}phenyl)urea] | 163 nM | 20.4 nM | 0.191 nM
O=C(NCc1cn2ccnc2cn1)c1ccc(C2CCN(C(=O)c3cc(F)ccc3F)CC2)cc1 [Example 813, 4-[1-(2,5-difluorobenzoyl)piperidin-4-yl]-N-(imidazo[1,2-a]pyrazin-6-ylmethyl)benzamide] | 11.2 nM | 2.21 nM | 1.53 nM
O=C(CC1CCCC1)Nc1ccc(NC(=O)NCc2cn3ccnc3cn2)cc1 [Example 681, 2-cyclopentyl-N-(4-{[(imidazo[1,2-a]pyrazin-6-ylmethyl)carbamoyl]amino}phenyl)acetamide] | 27.6 nM | 145 nM | 2 nM
O=C(Nc1ccc(NC(=O)C2CCS(=O)(=O)CC2)cc1)Nc1ccc2nccn2c1 [Example 49] | 442 nM | 7040 nM | 0.317 nM
O=C(NCc1ccn2ccnc2c1)Nc1ccc(C2CCN(C(=O)C3CCCO3)CC2)cc1 (stereo not drawn) [Example 220, 1-(imidazo[1,2-a]pyridin-7-ylmethyl)-3-{4-[1-(tetrahydrofuran-2-ylcarbonyl)piperidin-4-yl]phenyl}urea] | 74.2 nM | 5.73 nM | 0.278 nM
O=C(NCc1ccc2nccn2c1)c1cnc(N2CC(c3ccc(Cl)cc3)OC2=O)s1 (stereo not drawn) [Example 158, 2-[5-(4-chlorophenyl)-2-oxo-1,3-oxazolidin-3-yl]-N-(imidazo[1,2-a]pyridin-6-ylmethyl)-1,3-thiazole-5-carboxamide] | 341 nM | 191 nM | 6.39 nM
Cc1noc(C)c1CCC(=O)N(CC1CCCO1)c1ncc(C(=O)NCc2ccc3nccn3c2)s1 (stereo not drawn) [Example 129, 2-{[3-(3,5-dimethyl-1,2-oxazol-4-yl)propanoyl](tetrahydrofuran-2-ylmethyl)amino}-N-(imidazo[1,2-a]pyridin-6-ylmethyl)-1,3-thiazole-5-carboxamide] | 11.6 nM | 2.74 nM | 0.634 nM
COCCC(=O)N(CCC(C)C)c1ncc(C(=O)NCc2ccc3nccn3c2)s1 [Example 61, N-(imidazo[1,2-a]pyridin-6-ylmethyl)-2-[(3-methoxypropanoyl)(3-methylbutyl)amino]-1,3-thiazole-5-carboxamide] | 78.2 nM | 6.01 nM | 0.549 nM
CC(C)(C)OC(=O)N1CCC(Oc2ccc(NC(=O)NCc3ccn4ccnc4c3)cc2)CC1 [Example 366, tert-butyl 4-(4-{[(imidazo[1,2-a]pyridin-7-ylmethyl)carbamoyl]amino}phenoxy)piperidine-1-carboxylate] | 146 nM | 21.5 nM | 0.435 nM
O=C(NCc1ccn2ccnc2c1)Nc1ccc(C2CN(C(=O)[C@H]3CCCO3)C2)cc1 [Example 458, 1-(imidazo[1,2-a]pyridin-7-ylmethyl)-3-(4-{1-[(2R)-tetrahydrofuran-2-ylcarbonyl]azetidin-3-yl}phenyl)urea] | 940 nM | 183 nM | 0.382 nM
COCCC(=O)N(Cc1ccc(C#N)cc1)c1ncc(C(=O)Nc2ccc3nccn3c2)s1 [Example 54, 2-[(4-cyanobenzyl)(3-methoxypropanoyl)amino]-N-(imidazo[1,2-a]pyridin-6-yl)-1,3-thiazole-5-carboxamide] | 363 nM | 303 nM | 2.55 nM
O=C(Cc1ccc(NC(=O)CC2CCCC2)cc1)Nc1ccc2nccn2c1 [Example 76, 2-cyclopentyl-N-{4-[2-(imidazo[1,2-a]pyridin-6-ylamino)-2-oxoethyl]phenyl}acetamide] | 993 nM | 185 nM | 0.739 nM

Other lines, results leading:

IC50 [1] | IC50 (PC3 cells) | IC50 (NAMPT) | Compound
116 nM | 9.57 nM | 0.5 nM | O=C(NCc1ccn2ccnc2c1)c1ccc(C2CCN(C(=O)c3cnccn3)C2)s1 (stereo not drawn) [Example 792, N-(imidazo[1,2-a]pyridin-7-ylmethyl)-5-[1-(pyrazin-2-ylcarbonyl)pyrrolidin-3-yl]thiophene-2-carboxamide]
47.1 nM | 0.898 nM | 1.15 nM | CCC(C)(C)C(=O)N1CCC(c2ccc(C(=O)NCc3ccn4ccnc4c3)s2)C1 (stereo not drawn) [Example 791, 5-[1-(2,2-dimethylbutanoyl)pyrrolidin-3-yl]-N-(imidazo[1,2-a]pyridin-7-ylmethyl)thiophene-2-carboxamide]
95.3 nM | 33.2 nM | 0.63 nM | O=C(NCc1ccn2ccnc2c1)c1ccc(-c2cnn(CCN3CCNCC3)c2)s1 [Example 809, N-(imidazo[1,2-a]pyridin-7-ylmethyl)-5-{1-[2-(piperazin-1-yl)ethyl]-1H-pyrazol-4-yl}thiophene-2-carboxamide]
1980 nM | 879 nM | 0.362 nM | CC(C)(C)OC(=O)N1CC(Oc2ccc(C(=O)NCc3ccn4ccnc4c3)cc2)C1 [Example 474, tert-butyl 3-{4-[(imidazo[1,2-a]pyridin-7-ylmethyl)carbamoyl]phenoxyl}azetidine-1-carboxylate]
57.1 nM | 7.56 nM | 0.169 nM | CS(=O)(=O)N1CC=C(c2ccc(C(=O)NCc3ccn4ccnc4c3)s2)CC1 [Example 242, N-(imidazo[1,2-a]pyridin-7-ylmethyl)-5-[1-(methylsulfonyl)-1,2,3,6-tetrahydropyridin-4-yl]thiophene-2-carboxamide]
277 nM | 74.1 nM | 0.624 nM | O=C(NCc1ccn2ccnc2c1)c1ccc(C2CCN(C(=O)Cc3ccccc3)CC2)cc1 [Example 707, N-(imidazo[1,2-a]pyridin-7-ylmethyl)-4-[1-(phenylacetyl)piperidin-4-yl]benzamide]
44.4 nM | 7.51 nM | 0.484 nM | O=C(NCc1ccn2ccnc2c1)c1ccc(C2CCN(C(=O)c3cccs3)C2)s1 (stereo not drawn) [Example 786, N-(imidazo[1,2-a]pyridin-7-ylmethyl)-5-[1-(thiophen-2-ylcarbonyl)pyrrolidin-3-yl]thiophene-2-carboxamide]
132 nM | 23.2 nM | 0.61 nM | O=C(NCc1ccn2ccnc2c1)c1ccc(C2CCN(C(=O)Cc3ccc(F)cc3)C2)s1 (stereo not drawn) [Example 758, 5-{1-[(4-fluorophenyl)acetyl]pyrrolidin-3-yl}-N-(imidazo[1,2-a]pyridin-7-ylmethyl)thiophene-2-carboxamide]
238 nM | 18.4 nM | 0.915 nM | COc1ccccc1C(=O)N1CC(c2ccc(C(=O)NCc3ccn4ccnc4c3)cc2)C1 [Example 636, N-(imidazo[1,2-a]pyridin-7-ylmethyl)-4-[1-(2-methoxybenzoyl)azetidin-3-yl]benzamide]
> 10000 nM | 9800 nM | 1.06 nM | O=C(NCc1ccn2ccnc2c1)c1ccc(O[C@H]2CCN(C(=O)C3CC3)C2)cc1 [Example 352, 4-{[(3S)-1-(cyclopropylcarbonyl)pyrrolidin-3-yl]oxy}-N-(imidazo[1,2-a]pyridin-7-ylmethyl)benzamide]
389 nM | 49.6 nM | 0.169 nM | CC(C)OCC(=O)N1CC(c2ccc(NC(=O)NCc3ccn4ccnc4c3)cc2)C1 [Example 456, 1-(imidazo[1,2-a]pyridin-7-ylmethyl)-3-(4-{1-[(propan-2-yloxy)acetyl]azetidin-3-yl}phenyl)urea]
13.7 nM | 2.39 nM | 0.21 nM | Cn1cccc1CCC(=O)N(C[C@H]1CCCO1)c1ncc(C(=O)NCc2ccn3ccnc3c2)s1 [Example 203, N-(imidazo[1,2-a]pyridin-7-ylmethyl)-2-{[3-(1-methyl-1H-pyrrol-2-yl)propanoyl][(2R)-tetrahydrofuran-2-ylmethyl]amino}-1,3-thiazole-5-carboxamide]
2500 nM | 659 nM | 0.318 nM | CC(C)OCC(=O)N1CCC(Oc2ccc(C(=O)NCc3ccn4ccnc4c3)cc2)CC1 [Example 416, N-(imidazo[1,2-a]pyridin-7-ylmethyl)-4-({1-[(propan-2-yloxy)acetyl]piperidin-4-yl}oxy)benzamide]
427 nM | 33.2 nM | 0.749 nM | CC(C)(C)CC(=O)N1CCC(O)(c2ccc(C(=O)NCc3ccn4ccnc4c3)s2)CC1 [Example 555, 5-[1-(3,3-dimethylbutanoyl)-4-hydroxypiperidin-4-yl]-N-(imidazo[1,2-a]pyridin-7-ylmethyl)thiophene-2-carboxamide]
79.3 nM | 3.3 nM | 0.616 nM | Cc1ccsc1C(=O)N1CCC(c2ccc(C(=O)NCc3ccn4ccnc4c3)cc2)C1 (stereo not drawn) [Example 619, N-(imidazo[1,2-a]pyridin-7-ylmethyl)-4-{1-[(3-methylthiophen-2-yl)carbonyl]pyrrolidin-3-yl}benzamide]
1220 nM | > 10000 nM | 0.263 nM | O=C(NCc1ccn2ccnc2c1)c1ccc(Oc2ccccc2)cc1 [Example 489, N-(imidazo[1,2-a]pyridin-7-ylmethyl)-4-phenoxybenzamide]

Source: patent US9187472B2 (AbbVie Inc., priority 2012, dated 2015)
